# Laboratory results published in US11065253B2, “Arylquinazolines” (Merck Patent GmbH, priority 2013, dated 2021).
# System: phospho-serine 2056 DNA-PK in HCT116 cells
# Experiment: DNA-PK phosphorylation at serine 2056 (cellular), ELISA in bleomycin-treated HCT116 cells
# Type: cell-based
# Conditions: Homo sapiens, HCT-116, 6 h, cellular; HCT116 cells, 10 μM bleomycin, six hours; read-out: IC50 pDNA-PK
# Procedure, shortened: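 Chemiluminescent ELISA read-out; phospho-specific signal normalised to total DNA-PKcs. Cells (HCT116) exposed 6 h to test compound plus 10 μM bleomycin to induce double-strand breaks; DMSO control served as blank.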
row,IC50 [µM],Compound
1,5 to 10,"COC(=O)c1ccc(C(O)c2cc(-c3ncnc4cc(N5CCOCC5)ccc34)c(F)cc2Cl)nn1 (stereo not drawn) [Example 58, 6-{[2-Chloro-4-fluoro-5-(7-morpholin-4-yl-quinazolin-4-yl)phenyl]-hydroxymethyl}-pyridazine-3-carboxylic acid methyl ester]"
2,< 0.5,"OC(c1ccc(F)c(-c2ncnc3cc(N4CCOCC4)ccc23)c1)c1nc(Cl)cnc1Cl (stereo not drawn) [Example 35, (3,6-Dichloro-pyrazin-2-yl)-[4-fluoro-3-(7-morpholin-4-yl-quinazolin-4-yl)phenyl]-methanol]"
3,0.5 to 5,"O=c1ccc(C(O)c2ccc(F)c(-c3ncnc4cc(N5CCOCC5)ccc34)c2)n[nH]1 (stereo not drawn) [Example 76, 6-{[4-Fluoro-3-(7-morpholin-4-yl-quinazolin-4-yl)phenyl]-hydroxymethyl}-2H-pyridazin-3-one]"
4,< 0.5,"Cc1nccnc1C(O)c1ccc(F)c(-c2ncnc3cc(N4CCOCC4)ccc23)c1 (stereo not drawn) [Example 78, [4-Fluoro-3-(7-morpholin-4-yl-quinazolin-4-yl)phenyl]-(3-methylpyrazin-2-yl)-methanol]"
5,0.5 to 5,"COc1ccnnc1C(O)c1cc(-c2ncnc3cc(N4CCOCC4)ccc23)c(F)cc1Cl (stereo not drawn) [Example 3, [2-Chloro-4-fluoro-5-(7-morpholin-4-yl-quinazolin-4-yl)phenyl]-(4-methoxy-pyridazin-3-yl)methanol]"
6,< 0.5,"Cn1c(C(O)c2ccc(F)c(-c3ncnc4cc(N5CCOCC5)ccc34)c2)cccc1=O (stereo not drawn) [Example 91, 6-{[4-Fluoro-3-(7-morpholin-4-yl-quinazolin-4-yl)-phenyl]hydroxy-methyl}-1-methyl-1H-pyridin-2-one]"

# Same assay, conditions: Homo sapiens, HCT-116, cellular DNA-PK phosphorylation at serine 2056, HCT116 cells; read-out: IC50 pDNA-PK
row,IC50 [µM],Compound
1,5 to 10,"Cn1cnc2c(C(O)c3ccc(F)c(-c4ncnc5cc(N6CCOCC6)ccc45)c3)ncnc21 (stereo not drawn) [Example 420, [4-Fluoro-3-(7-morpholin-4-yl-quinazolin-4-yl)-phenyl]-(9-methyl-9H-purin-6-yl)-methanol]"
2,0.5 to 5,"OC(c1cc(-c2ncnc3cc(N4CCOCC4)ccc23)ccc1F)c1ncnc2ccoc12 (stereo not drawn) [Example 374, [2-Fluoro-5-(7-morpholin-4-yl-quinazolin-4-yl)-phenyl]furo[3,2-d}-pyrimidin-4-yl-methanol]"
3,< 0.5,"COc1ccc(C(O)c2cc(-c3ncnc4cc(N5CCOCC5)ccc34)ccc2Cl)nn1 (stereo not drawn) [Example 458, [2-Chloro-5-(7-morpholin-4-yl-quinazolin-4-yl)-phenyl]-(6-methoxy-pyridazin-3-yl)-methanol]"
4,0.5 to 5,"Cn1cnc2c(C(O)c3cc(-c4ncnc5cc(N6CCOCC6)ccc45)c(F)cc3F)ncnc21 (stereo not drawn) [Example 421, [2,4-Difluoro-5-(7-morpholin-4-yl-quinazolin-4-yl)-phenyl]-(9-methyl-9H-purin-6-yl)-methanol]"
5,10 to 30,"OC(c1cn2ccsc2n1)c1cc(-c2ncnc3cc(N4CCOCC4)ccc23)c(F)cc1F (stereo not drawn) [Example 474, [2,4-Difluoro-5-(7-morpholin-4-yl-quinazolin-4-yl)-phenyl]imidazo-[2,1-b]thiazol-6-yl-methanol]"
6,0.5 to 5,"OC(c1cc(-c2ncnc3cc(N4CCOCC4)ccc23)ccc1Cl)c1ncnc2occc12 (stereo not drawn) [Example 416, [2-Chloro-5-(7-morpholin-4-yl-quinazolin-4-yl)-phenyl]furo[2,3-d}-pyrimidin-4-yl-methanol]"

# Same assay, conditions: Homo sapiens, HCT-116, phospho-serine 2056 DNA-PK, bleomycin-treated HCT116 cells; class symbols A-D; read-out: IC50 pDNA-PK
row,IC50 [µM],Compound
1,< 0.5,"COc1ccc([C@@H](O)c2cc(-c3ncnc4cc(N5CCOCC5)ccc34)c(F)cc2Cl)nn1 [Example 136, (S)-[2-Chloro-4-fluoro-5-(7-morpholin-4-yl-quinazolin-4-yl)-phenyl]-(6-methoxy-pyridazin-3-yl)-methanol]"
2,10 to 30,"CC(O)(c1cncc(-c2ncnc3cc(N4CCOCC4)ccc23)c1)c1nccs1 (stereo not drawn) [Example 152, 1-[5-(7-Morpholin-4-ylquinazolin-4-yl)-pyridin-3-yl]-1-thiazol-2-ylethanol]"
3,5 to 10,"Cn1nc(C(O)c2ccc(F)c(-c3ncnc4cc(N5CCOCC5)ccc34)c2F)ccc1=O (stereo not drawn) [Example 220, 6-{[2,4-Difluoro-3-(7-morpholin-4-yl-quinazolin-4-yl)-phenyl]hydroxy-methyl}-2-methyl-2H-pyridazin-3-one]"
4,< 0.5,"CSc1ccc(C(O)c2cc(-c3ncnc4cc(N5CCOCC5)ccc34)c(F)cc2Cl)nn1 (stereo not drawn) [Example 108, [2-Chloro-4-fluoro-5-(7-morpholin-4-yl-quinazolin-4-yl)-phenyl]-(6-methyl-sulfanylpyridazin-3-yl)methanol]"
5,5 to 10,"CN(C)CCOc1ccc(C(O)c2ccc(F)c(-c3ncnc4cc(N5CCOCC5)ccc34)c2)nn1 (stereo not drawn) [Example 133, [6-(2-Dimethyl-amino-ethoxy)-pyridazin-3-yl]-[4-fluoro-3-(7-morpholin-4-yl-quinazolin-4-yl)-phenyl]methanol]"
6,0.5 to 5,"OC(c1ccc2ncnn2c1)c1cc(-c2ncnc3cc(N4CCOCC4)ccc23)c(F)cc1F (stereo not drawn) [Example 222, [2,4-Difluoro-5-(7-morpholin-4-yl-quinazolin-4-yl)-phenyl]-[1,2,4]-triazolo[1,5-a]pyridin-6-ylmethanol]"
7,0.5 to 5,"COCCOc1ccc(C(O)c2cc(-c3ncnc4cc(N5CCOCC5)ccc34)c(F)cc2Cl)nn1 (stereo not drawn) [Example 112, [2-Chloro-4-fluoro-5-(7-morpholin-4-yl-quinazolin-4-yl)-phenyl]-[6-(2-methoxyethoxy)-pyridazin-3-yl]-methanol]"

# Same assay, conditions: Homo sapiens, HCT-116, phospho-serine 2056 DNA-PK, bleomycin-treated HCT116 cells; read-out: IC50 pDNA-PK
row,IC50 [µM],Compound
1,5 to 10,"COc1nnccc1C(C(N)=O)c1cc(-c2ncnc3cc(N4CCOCC4)ccc23)c(F)cc1Cl (stereo not drawn) [Example 307, 2-[2-Chloro-4-fluoro-5-(7-morpholin-4-yl-quinazolin-4-yl)-phenyl]-2-(3-methoxypyridazin-4-yl)acetamide]"
2,10 to 30,"NC(=O)c1cncc(C(C(N)=O)c2ccc(F)c(-c3ncnc4cc(N5CCOCC5)ccc34)c2)n1 (stereo not drawn) [Example 292, 6-{Carbamoyl-[4-fluoro-3-(7-morpholin-4-yl-quinazolin-4-yl)-phenyl]methyl}-pyrazine-2-carboxylic acid amide]"
3,5 to 10,"Cc1nccnc1/C(C(=O)O)=C1/C=CC(=O)C(c2ncnc3cc(N4CCOCC4)ccc23)=C1 [Example 331, (3-methyl-pyrazin-2-yl)-[3-(7-morpholin-4-ylquinazolin-4-yl)-4-oxocyclohexa-2,5-dien-(E)-ylidene]-acetic acid]"
4,5 to 10,"Cc1nccnc1C(C(N)=O)c1cc(-c2ncnc3cc(N4CCOCC4)ccc23)c(F)cc1F (stereo not drawn) [Example 329, 2-[2,4-Difluoro-5-(7-morpholin-4-yl-quinazolin-4-yl)-phenyl]-2-(3-methyl-pyrazin-2-yl)-acetamide]"
5,< 0.5,"OC(c1cc(-c2ncnc3cc(N4CCOCC4)ccc23)c(F)cc1Cl)c1nccn2cccc12 (stereo not drawn) [Example 359, [2-Chloro-4-fluoro-5-(7-morpholin-4-yl-quinazolin-4-yl)-phenyl]pyrrolo[1,2-a]-pyrazin-1-ylmethanol]"
6,0.5 to 5,"Cc1nccnc1C(O)c1cc(-c2ncnc3cc(N4CCOCC4)cnc23)c(F)cc1Cl (stereo not drawn) [Example 240, [2-Chloro-4-fluoro-5-(7-morpholin-4-yl-pyrido[3,2-d}-pyrimidin-4-yl)-phenyl]-(3-methyl-pyrazin-2-yl)-methanol]"
7,< 0.5,"OC(c1cc(-c2ncnc3cc(N4CCOCC4)ccc23)c(F)cc1F)c1nccn2cccc12 (stereo not drawn) [Example 358, [2,4-Difluoro-5-(7-morpholin-4-yl-quinazolin-4-yl)-phenyl]pyrrolo[1,2-a]-pyrazin-1-ylmethanol]"

# Same assay, conditions: cellular DNA-PK phosphorylation at serine 2056, HCT116 cells; read-out: IC50 pDNA-PK
row,Compound,IC50 [µM]
1,"COc1cncnc1C(O)c1cc(-c2ncnc3cc(N4CCOCC4)ccc23)ccc1Cl (stereo not drawn) [Example 409, [2-Chloro-5-(7-morpholin-4-yl-quinazolin-4-yl)-phenyl]-(5-methoxy-pyrimidin-4-yl)-methanol (Ena 1)]",0.5 to 5
2,"OC(c1cc(-c2ncnc3cc(N4CCOCC4)ccc23)c(F)cc1F)c1nccnc1OC(F)F (stereo not drawn) [Example 451, (3-Difluoromethoxy-pyrazin-2-yl)-[2,4-difluoro-5-(7-morpholin-4-yl-quinazolin-4-yl)-phenyl]methanol]",0.5 to 5
3,"OC(c1cc(-c2ncnc3cc(N4CCOCC4)ccc23)c(F)cc1F)c1nccnc1OC(F)F (stereo not drawn) [Example 449, (3-Difluoromethoxy-pyrazin-2-yl)-[2,4-difluoro-5-(7-morpholin-4-yl-quinazolin-4-yl)-phenyl]methanol]",0.5 to 5

# Same assay, conditions: cellular; HCT116 cells, 10 μM bleomycin, six hours; read-out: IC50 pDNA-PK
row,IC50 [µM],Compound
1,< 0.5,"OC(c1ccc2nccn2n1)c1cc(-c2ncnc3cc(N4CCOCC4)ccc23)c(F)cc1F (stereo not drawn) [Example 21, [2,4-Difluoro-5-(7-morpholin-4-yl-quinazolin-4-yl)phenyl]-imidazo[1,2-b]pyridazin-6-ylmethanol]"
2,< 0.5,"OC(c1ccc2nccn2n1)c1cc(-c2ncnc3cc(N4CCOCC4)ccc23)c(F)cc1F (stereo not drawn) [Example 51, [2,4-Difluoro-5-(7-morpholin-4-yl-quinazolin-4-yl)phenyl]-imidazo[1,2-b]pyridazin-6-ylmethanol]"

# Same assay, conditions: phospho-serine 2056 DNA-PK, bleomycin-treated HCT116 cells; read-out: IC50 pDNA-PK
row,IC50 [µM],Compound
1,< 0.5,"[2H]C1([2H])OC([2H])([2H])C([2H])([2H])N(c2ccc3c(-c4cc(C(O)c5ccc(OC)nn5)c(Cl)cc4F)ncnc3c2)C1([2H])[2H] (stereo not drawn) [Example 244, [2-Chloro-4-fluoro-5-[7-(2,2,3,3,5,5,6,6-octadeuterio-morpholin-4-yl)quinazolin-4-yl]phenyl]-(6-methoxypyridazin-3-yl)methanol]"
2,< 0.5,"[2H]C1([2H])OC([2H])([2H])C([2H])([2H])N(c2ccc3c(-c4cc(C(O)c5nccnc5OC)c(Cl)cc4F)ncnc3c2)C1([2H])[2H] (stereo not drawn) [Example 242, [2-Chloro-4-fluoro-5-[7-(2,2,3,3,5,5,6,6-octadeuterio-morpholin-4-yl)quinazolin-4-yl]phenyl]-(3-methoxypyrazin-2-yl)methanol]"
